Data reported in patent US8828997B2, “2,3-dihydro-1H-imidazo(1,2-a)pyrimidin-5-one derivatives, preparation thereof, and pharmaceutical use thereof” (Sanofi, priority 2009, dated 2014).

Columns and labels:
Type in all cases: cell-based
[1] = system: AKT protein phosphorylated on serine 473 (P-AKT-S473) in PC3 human prostate carcinoma cells; assay: pAKT expression in PC3 human prostate carcinoma cells measured by MSD Multi-spot Biomarker detection (test B); details: Homo sapiens, PC-3, P-AKT-S473, PC3 cells, MSD sandwich immunoassay, 1 to 2 h incubation, absolute IC50
Experimental: The inhibitory activity of the molecules on AKT phosphorylation is measured either by western blotting using the technique described below, or by the MSD Multi-spot Biomarker detection technique from Meso Scale Discovery also described below.
Study of pAKT Expression in PC3 Human Prostate Carcinoma Cells Measured by the MSD Multi-Spot Biomarker Detection Technique from Meso Scale Discovery (Test B):
This test is based on measuring the expression of the AKT protein phosphorylated on serine 473 (P-AKT-S473), in the PC3 human prostate carcinoma line, by means of the technique based on a sandwich immunoassay using the MSD Multi-spot Biomarker Detection kit from Meso Scale Discovery: phospho-Akt (Ser473) whole cell lysate kit (#K151CAD) or phospho-Akt (Ser473)/Total Akt whole cell lysate kit (#K151OOD). The primary antibody specific for P-AKT-S473 (Kit #K151CAD) is coated onto an electrode in each well of the 96-well plates of the MSD kit: after the addition of a protein lysate to each well, the signal is visualised by adding a secondary detection antibody labelled with an electrochemoluminescent compound. The procedure followed is that described in the kit.
(§1) On day 1, the PC3 cells are seeded into 96-well plates (TPP, #92096) at the concentration of 35 000 cells/well in 200 μl of DMEM medium (DMEM Gibco #11960-044) containing 10% of foetal calf serum (FCS Gibco, #10500-056) and 1% glutamine (L-Glu Gibco #25030-024), and incubated at 37° C., 5% CO2, overnight.
On day 2, the cells are incubated in the presence or absence of the test products for 1 to 2 h at 37° C. in the presence of 5% of CO2. The molecules, diluted in dimethyl sulphoxide (DMSO Sigma #D2650), are added from a 20-times concentrated stock solution, the final percentage of DMSO being 0.1%. The molecules are tested either at a single concentration of less than or equal to 10 μM, or at increasing concentrations in a range that can extend from less than 1 nM to 10 μM.
After this incubation, the cells are lysed for the preparation of the proteins. For this, after the culture medium has been drawn off, 50 μl of complete Tris Lysis Buffer of the MSD kit containing the protease and phosphatase inhibitor solutions are added to the wells and the cells are lysed for 1 h at 4° C. with shaking. At this stage, the plates containing the lysates can be stored at −20° C. or at −80° C.
The wells of the 96-well plates of the MSD kit are saturated for 1 h at ambient temperature with the blocking solution of the MSD kit. Four washes are carried out with 150 μl of Tris Wash Buffer of the MSD kit. The lysates previously prepared are transferred into the 96-well multi-spot plates of the MSD kit and incubated for 1 h at ambient temperature, with shaking. Four washes are carried out with 150 μl of Tris Wash Buffer of the MSD kit. 25 μl of the MSD sulfo-tag detection antibody solution are added to the wells and incubated for 1 h at ambient temperature, with shaking. Four washes are carried out with 150 μl of Tris Wash Buffer of the MSD kit. 150 μl of Read Buffer of the MSD kit are added to the wells and the plates are read immediately on the S12400 instrument from Meso Scale Discovery.
The instrument measures a signal for each well. Wells without cells and containing the lysis buffer serve to determine the background noise that will be subtracted from all the measurements (min). The wells containing cells in the absence of product and in the presence of 0.1% DMSO are considered to be the 100% signal (max). The percentage inhibition is calculated for each concentration of test product according to the following formula: (1-((test−min)/(max−min)))×100.
The activity of the product is translated to IC50, obtained from a dose-response curve of the various concentrations tested and representing the dose giving 50% specific inhibition (absolute IC50). 2 independent experiments make it possible to calculate the mean of the IC50 values.

[2] = system: translocation of the LC3 protein in Hela GFP-LC3 cells; assay: Translocation of the LC3 protein in Hela human cells measured by image analysis cytometry (test C, autophagy); details: Homo sapiens, HeLa, 2 h, EBSS + 10 μM hydroxychloroquine, cells with LC3 granulations, absolute IC50
Experimental: Inhibitory activity of the molecules on autophagy is measured by means of the translocation of the LC3 protein from the cytoplasm to the autophagosomes. For this, Hela cells were transfected with a vector encoding the chimeric protein GFP-LC3. A Hela clone stably expressing the GFP-LC3 protein was selected.
Study of the Translocation of the LC3 Protein in Hela Human Cells, Measured by Image Analysis Cytometry (Test C):
as §1, with “Hela GFP-LC3” for “PC3”, “coated with poly-D-lysine (Greiner, #655946)” for “(TPP, #92096)”, “15000” for “35 000”
On day 2, the cells are washed twice with EBSS (Sigma #E3024). The cells are then incubated in EBSS, 10 μM hydroxychloroquine and test products, for 2 hours at 37° C. in the presence of 5% CO2. The molecules are diluted in dimethyl sulphoxide (DMSO Sigma #D2650), the final DMSO percentage being 0.1%. The molecules are tested at increasing concentrations in a range that can extend from 10 nM to 1 μM.
After this incubation, the cells are fixed with 4% paraformaldehyde (Sigma #HT501128 4L) for 10 min. The cells are then washed twice with PBS and the nuclei then stained with 2 μg/ml of Hoechst 33342 (Invitrogen #H3570). The 96-well plates are then read with the iCyte image analysis cytometer (Compucyte).
The activity of the product is translated to IC50, obtained from a dose-response curve of various concentrations tested and representing the dose giving 50% specific inhibition (absolute IC50). 2 independent experiments make it possible to calculate the mean of the IC50 values.

[3] = system: P. falciparum (highly chloroquine-resistant strain Fcm29-Cameroon); assay: Antimalarial activity test (radioactive micromethod of Desjardins, tritiated hypoxanthine incorporation); details: Plasmodium falciparum, Erythrocyte, infected human erythrocytes, 48 h
Experimental: Antimalarial Activity Test
The antimalarial activity tests are carried out according to the radioactive micromethod of Desjardins (R. E. Desjardins, C. J. Canfield, J. D. Haynes, J. D. Chulay, Antimicrob. Agents Chemother., 1979, 16, 710-718). The assays are carried out in 96-well microplates (Test Plates Ref. 92696, Techno Plastic Products Ag, Zollstrasse 155, CH-8219 Trasadingen). The P. falciparum strains are cultured in solutions of RPMI 1640 supplemented with 5% of human serum with a haematocrit at 2% and a blood parasite concentration at 1.5%. For each assay, the parasites are incubated with selected concentrations of drugs for 48 h at 37° C. in a humid atmosphere and at 5% CO2. Artemisinin, artesunate and also chloroquine diphosphate are used as reference molecules. The first dilution of the drug is prepared at 1 mg/ml in dimethyl sulphoxide. The range of dilutions of the successive daughter solutions is also prepared in dimethyl sulphoxide. Each daughter dilution is subsequently diluted to 1/50 in RPMI 1640 supplemented with 5% of human serum, all the dilutions being carried out at 37° C. These dilutions are then added to the parasites in culture in the microplates. After addition of the drug, the parasites are in culture in RPMI 1640 containing 5% of human serum and 1% of dimethyl sulphoxide. The parasite growth is measured by incorporation of tritiated hypoxanthine (added 24 h after the beginning of the exposure to the drug) compared with the incorporation in the absence of drug.
The activity of the product is translated to % inhibition of the growth of P. falciparum (highly chloroquine-resistant strain Fcm29-Cameroon) at 1 μM and 0.1 μM in an in vitro test using infected human erythrocytes.

Row | Compound | IC50 [1] [nM] | IC50 [2] [nM] | inhibition at 1 µM [3] [%] | inhibition at 0.1 µM [3] [%]
1 | C[C@@]1(C(F)(F)F)Cn2c(nc(N3CCOCC3)cc2=O)N1C(=O)c1ccccc1Cl [Example 34, (2S)-1-[(2-chlorophenyl)carbonyl]-2-methyl-7-(morpholin-4-yl)-2-(trifluoromethyl)-2,3-dihydroimidazo[1,2-a]pyrimidin-5(1H)-one] | 159 |  |  | 
2 | CC(c1cccc(F)c1)N1c2nc(N3CCOCC3)cc(=O)n2C[C@@]1(C)C(F)(F)F (single isomer, unassigned) [Example 22, (2S)-1-[(1R or 1S)-1-(3-Fluorophenyl)ethyl]-2-methyl-7-(morpholin-4-yl)-2-(trifluoromethyl)-2,3-dihydroimidazo[1,2-a]pyrimidin-5(1H)-one] | 59 | 872 |  | 
3 | C[C@@]1(C(F)(F)F)Cn2c(nc(N3CCOCC3)cc2=O)N1Cc1csc2ccc(Cl)cc12 [Example 20, (2S)-1-[(5-Chloro-1-benzothiophen-3-yl)methyl]-2-methyl-7-(morpholin-4-yl)-2-(trifluoromethyl)-2,3-dihydroimidazo[1,2-a]pyrimidin-5(1H)-one] | 18 | 703 |  | 
4 | COc1ccccc1[C@H](O)CN1c2nc(N3CCOCC3)cc(=O)n2C[C@@]1(C)C(F)(F)F [Example 40, (S)-1-[(S)-2-hydroxy-2-(2-methoxyphenyl)ethyl]-2-methyl-7-morpholin-4-yl-2-trifluoromethyl-2,3-dihydro-1H-imidazo[1,2-a]pyrimidin-5-one] |  |  | 80 | 20
5 | COc1cc(Cl)ccc1[C@H](O)CN1c2nc(N3CCOCC3)cc(=O)n2C[C@@]1(C)C(F)(F)F [Example 41, (S)-1-[(S)-2-(4-chloro-2-methoxyphenyl)-2-hydroxyethyl]-2-methyl-7-morpholin-4-yl-2-trifluoromethyl-2,3-dihydro-1H-imidazo[1,2-a]pyrimidin-5-one] |  |  | 78 | 
6 | COc1cc(F)ccc1[C@H](O)CN1c2nc(N3CCOCC3)cc(=O)n2C[C@@]1(C)C(F)(F)F [Example 42, (S)-1-[(S)-2-(4-fluoro-2-methoxyphenyl)-2-hydroxyethyl]-2-methyl-7-morpholin-4-yl-2-trifluoromethyl-2,3-dihydro-1H-imidazo[1,2-a]pyrimidin-5-one] |  |  | 78 | 
7 | COc1ccc([C@H](O)CN2c3nc(N4CCOCC4)cc(=O)n3C[C@@]2(C)C(F)(F)F)c(Cl)c1 [Example 43, (S)-1-[(S)-2-(2-chloro-4-methoxyphenyl)-2-hydroxyethyl]-2-methyl-7-morpholin-4-yl-2-trifluoromethyl-2,3-dihydro-1H-imidazo[1,2-a]pyrimidin-5-one] |  |  | 74 | 22
8 | COc1cc(F)c(C(O)CN2c3nc(N4CCOCC4)cc(=O)n3C[C@@]2(C)C(F)(F)F)cc1OC (stereo partly drawn) [Example 39, (S)-1-[2-(2-fluoro-4,5-dimethoxyphenyl)-2-hydroxyethyl]-2-methyl-7-morpholin-4-yl-2-trifluoromethyl-2,3-dihydro-1H-imidazo[1,2-a]pyrimidin-5-one] |  |  | 85 | 39
9 | CCC(c1ccccc1)N1c2nc(N3CCOCC3)cc(=O)n2C[C@@]1(C)C(F)(F)F (single isomer, unassigned) [Example 13, (S)-2-Methyl-7-morpholin-4-yl-1-((R) or (S)-1-phenylpropyl)-2-trifluoromethyl-2,3-dihydro-1H-imidazo[1,2-a]pyrimidin-5-one] |  | 822 |  | 

Continued, in another order:

Row | IC50 [1] [nM] | IC50 [2] [nM] | Compound | inhibition at 1 µM [3] [%] | inhibition at 0.1 µM [3] [%]
10 |  | 235 | C[C@@]1(C(F)(F)F)Cn2c(nc(N3CCOCC3)cc2=O)N1C[C@H](O)c1ccccc1 [Example 11] | 13 | 
11 |  | 71 | C[C@@]1(C(F)(F)F)Cn2c(nc(N3CCOCC3)cc2=O)N1CCSc1ccccc1 [Example 7, (S)-2-Methyl-7-morpholin-4-yl-1-(2-phenylsulfanylethyl)-2-trifluoromethyl-2,3-dihydro-1H-imidazo[1,2-a]pyrimidin-5-one] |  | 
12 |  | 39 | COc1ccc(CCN2c3nc(N4CCOCC4)c(F)c(=O)n3C[C@@]2(C)C(F)(F)F)cc1 [Example 18, (2S)-6-Fluoro-1-[2-(4-methoxyphenyl)ethyl]-2-methyl-7-(morpholin-4-yl)-2-(trifluoromethyl)-2,3-dihydroimidazo[1,2-a]pyrimidin-5(1H)-one] |  | 
13 |  | 345 | COc1ccc(CCN2c3nc(N4CCOCC4)cc(=O)n3CC2(C)C)cc1 [Example 17, 1-[2-(4-Methoxyphenyl)ethyl]-2,2-dimethyl-7-morpholin-4-yl-2,3-dihydro-1H-imidazo[1,2-a]pyrimidin-5-one] |  | 
14 |  | 191 | C[C@H](CN1c2nc(N3CCOCC3)cc(=O)n2C[C@@]1(C)C(F)(F)F)c1ccccc1 [Example 9, (S)-2-Methyl-7-morpholin-4-yl-1-((S)-2-phenylpropyl)-2-trifluoromethyl-2,3-dihydro-1H-imidazo[1,2-a]pyrimidin-5-one] |  | 
